In US20210403443A1, “SUBSTITUTED 1,2,4-OXADIAZOLE, ITS APPLICATION AND A PHARMACEUTICAL PREPARATION COMPRISING IT” (SVENOX PHARMACEUTICALS LLC, priority 2018, published 2021):
≈ marks a conversion by molar mass, not a printed value. Like-named read-outs stand apart in the source and are kept apart here.

How the values were obtained:
[1] = test system: Mycobacterium tuberculosis CNCTC My 331/88; assay: microbe, parasite or virus in culture; type: cell-based; details: read-out: Minimum inhibiting concentration
M. avium CNCTC My 330/88 = assay: MIC micromethod in Sula's medium, atypical strain M. avium; type: cell-based; details: Mycobacterium avium, read-out: Minimum inhibiting concentration
Description: The prepared compounds with general formula I were tested by the Institute of Public Health in Ostrava (Department of Bacteriology and Mycology, Laboratory for Diagnostics of Mycobacteria, Partyzanské náměsti 7, 702 00 Ostrava) under in vitro conditions in liquid Sula's medium and their minimum inhibiting concentrations (MIC) were determined as the biological effect of molecules cannot be predicted. The antimycobacterial activity of the prepared compounds was tested on the collection strain Mycobacterium tuberculosis CNCTC My 331/88, collection atypical strains M. avium CNCTC My 330/88 and M. kansasii CNCTC My 235/80. Their activity was compared with the effect of isoniazide (INH), a commonly used medicament.

[2] = test system: M. kansasii CNCTC My 235/80; assay: microbe, parasite or virus in culture; type: cell-based; details: Mycobacterium kansasii, read-out: Minimum inhibiting concentration
[3] = 336 h, M. avium My 330/88, after 14 days of incubation
[4] = 504 h, M. avium My 330/88, after 21 days of incubation

| SMILES | MIC ([1]; 336 h) | MIC ([1]; 504 h) | MIC (M. avium CNCTC My 330/88; [3]) | MIC (M. avium CNCTC My 330/88; [4]) | MIC ([2]; 168 h) | MIC ([2]; 336 h) | MIC ([2]; 504 h) | melting point |
| --- | --- | --- | --- | --- | --- | --- | --- | --- |
| COc1ccc(-c2noc(CCc3cc([N+](=O)[O-])cc([N+](=O)[O-])c3)n2)cc1 [Compound 13] | 0.5 µM (≈ 0.185 µg/mL) | 1 µM (≈ 0.37 µg/mL) | 250 µM (≈ 92.6 µg/mL) | 250 µM (≈ 92.6 µg/mL) | 0.5 µM (≈ 0.185 µg/mL) | 1 µM (≈ 0.37 µg/mL) | 2 µM (≈ 0.741 µg/mL) | 128 to 129 °C |
| O=[N+]([O-])c1cc(CCc2nc(-c3ccc(Cl)c(Cl)c3)no2)cc([N+](=O)[O-])c1 [Compound 15] | > 32 µM | > 32 µM | 250 µM (≈ 102 µg/mL) | 250 µM (≈ 102 µg/mL) | 32 µM (≈ 13.1 µg/mL) | > 32 µM | > 32 µM | 154 to 155 °C |
| O=[N+]([O-])c1cc(CCc2nc(-c3ccc(Cl)cc3)no2)cc([N+](=O)[O-])c1 [Compound 14] | > 32 µM | > 32 µM | 250 µM (≈ 93.7 µg/mL) | 250 µM (≈ 93.7 µg/mL) | > 32 µM | > 32 µM | > 32 µM | 182 to 183 °C |
| O=[N+]([O-])c1cc(CSc2nc(-c3ccc(Cl)cc3)no2)cc([N+](=O)[O-])c1 [Compound 4] | 0.5 µM (≈ 0.196 µg/mL) | 1 µM (≈ 0.393 µg/mL) | 250 µM (≈ 98.2 µg/mL) | 250 µM (≈ 98.2 µg/mL) | 1 µM (≈ 0.393 µg/mL) | 2 µM (≈ 0.786 µg/mL) | 4 µM (≈ 1.57 µg/mL) |  |
| O=[N+]([O-])c1cc(CSc2nc(-c3ccc(F)cc3)no2)cc([N+](=O)[O-])c1 [Compound 8] | 0.25 µM (≈ 0.0941 µg/mL) | 0.5 µM (≈ 0.188 µg/mL) | 250 µM (≈ 94.1 µg/mL) | 250 µM (≈ 94.1 µg/mL) | 0.5 µM (≈ 0.188 µg/mL) | 1 µM (≈ 0.376 µg/mL) | 2 µM (≈ 0.753 µg/mL) | 150 to 152 °C |
| O=[N+]([O-])c1cc(CSc2nc(-c3cccc(Cl)c3)no2)cc([N+](=O)[O-])c1 [Compound 5] | 0.5 µM (≈ 0.196 µg/mL) | 1 µM (≈ 0.393 µg/mL) | 250 µM (≈ 98.2 µg/mL) | 250 µM (≈ 98.2 µg/mL) | 2 µM (≈ 0.786 µg/mL) | 2 µM (≈ 0.786 µg/mL) | 4 µM (≈ 1.57 µg/mL) | 133 to 135 °C |
| O=[N+]([O-])c1cc(CCc2nc(-c3ccc(F)cc3)no2)cc([N+](=O)[O-])c1 [Compound 16] | > 32 µM | > 32 µM | 250 µM (≈ 89.6 µg/mL) | 250 µM (≈ 89.6 µg/mL) | > 32 µM | > 32 µM | > 32 µM | 169 to 171 °C |
| Cc1ccc(-c2noc(CCc3cc([N+](=O)[O-])cc([N+](=O)[O-])c3)n2)cc1 [Compound 12, 5-(3,5-Dinitrophenethyl)-3-(p-tolyl)-1,2,4-oxadiazole] | 2 µM (≈ 0.709 µg/mL) | 4 µM (≈ 1.42 µg/mL) | 250 µM (≈ 88.6 µg/mL) | 250 µM (≈ 88.6 µg/mL) | 2 µM (≈ 0.709 µg/mL) | 4 µM (≈ 1.42 µg/mL) | 4 µM (≈ 1.42 µg/mL) | 147 to 148 °C |
| O=[N+]([O-])c1cc(CCc2nc(-c3ccccc3)no2)cc([N+](=O)[O-])c1 [Compound 11, 5-(3,5-Dinitrophenethyl)-3-phenyl-1,2,4-oxadiazole] | 4 µM (≈ 1.36 µg/mL) | 4 µM (≈ 1.36 µg/mL) | 250 µM (≈ 85.1 µg/mL) | 250 µM (≈ 85.1 µg/mL) | 2 µM (≈ 0.681 µg/mL) | 4 µM (≈ 1.36 µg/mL) | 8 µM (≈ 2.72 µg/mL) | 120 to 122 °C |
| O=[N+]([O-])c1cc(CSc2nc(-c3ccc(Cl)c(Cl)c3)no2)cc([N+](=O)[O-])c1 [Compound 7] | 1 µM (≈ 0.427 µg/mL) | 1 µM (≈ 0.427 µg/mL) | 250 µM (≈ 107 µg/mL) | 250 µM (≈ 107 µg/mL) | 1 µM (≈ 0.427 µg/mL) | 1 µM (≈ 0.427 µg/mL) | 2 µM (≈ 0.854 µg/mL) | 176 to 177 °C |
| O=[N+]([O-])c1cc(CSc2nc(-c3ccc(Br)cc3)no2)cc([N+](=O)[O-])c1 [Compound 9] | 1 µM (≈ 0.437 µg/mL) | 1 µM (≈ 0.437 µg/mL) | 125 µM (≈ 54.7 µg/mL) | 125 µM (≈ 54.7 µg/mL) | 1 µM (≈ 0.437 µg/mL) | 1 µM (≈ 0.437 µg/mL) | 2 µM (≈ 0.874 µg/mL) | 175 to 176 °C |
| Cc1ccc(-c2noc(SCc3cc([N+](=O)[O-])cc([N+](=O)[O-])c3)n2)cc1 [Compound 2, 5-((3,5-Dinitrobenzyl)sulfanyl)-3-(p-tolyl)-1,2,4-oxadiazole] | 0.5 µM (≈ 0.186 µg/mL) | 1 µM (≈ 0.372 µg/mL) | 250 µM (≈ 93.1 µg/mL) | 250 µM (≈ 93.1 µg/mL) | 0.5 µM (≈ 0.186 µg/mL) | 1 µM (≈ 0.372 µg/mL) | 2 µM (≈ 0.745 µg/mL) | 150 to 152 °C |
| COc1ccc(-c2noc(SCc3cc([N+](=O)[O-])cc([N+](=O)[O-])c3)n2)cc1 [Compound 3] | 0.5 µM (≈ 0.194 µg/mL) | 0.5 µM (≈ 0.194 µg/mL) | 250 µM (≈ 97.1 µg/mL) | 250 µM (≈ 97.1 µg/mL) | 0.5 µM (≈ 0.194 µg/mL) | 1 µM (≈ 0.388 µg/mL) | 2 µM (≈ 0.777 µg/mL) |  |
| O=[N+]([O-])c1cc(CSc2nc(-c3ccccc3Cl)no2)cc([N+](=O)[O-])c1 [Compound 6] | 0.5 µM (≈ 0.196 µg/mL) | 1 µM (≈ 0.393 µg/mL) | 125 µM (≈ 49.1 µg/mL) | 125 µM (≈ 49.1 µg/mL) | 8 µM (≈ 3.14 µg/mL) | 16 µM (≈ 6.28 µg/mL) | 32 µM (≈ 12.6 µg/mL) | 158 to 160 °C |
| O=[N+]([O-])c1cc(CSc2nc(-c3ccccc3)no2)cc([N+](=O)[O-])c1 [Compound 1, 5-((3,5-Dinitrobenzyl)sulfanyl)-3-phenyl-1,2,4-oxadiazole] | 0.5 µM (≈ 0.179 µg/mL) | 1 µM (≈ 0.358 µg/mL) | 250 µM (≈ 89.6 µg/mL) | 250 µM (≈ 89.6 µg/mL) | 0.5 µM (≈ 0.179 µg/mL) | 1 µM (≈ 0.358 µg/mL) | 1 µM (≈ 0.358 µg/mL) | 135 to 136 °C |
